Laboratory results as given in patent US5624936A, “Inhibitors of farnesyl-protein transferase” (Merck & Co., Inc., priority 1996, dated 1997).
Counter-ions that a name gives are not always drawn.

Target: T1, human FPTase (Homo sapiens, UniProt P49354+P49356)
T1 construct: made in house
Test: In vitro inhibition of human farnesyl-protein transferase (FPTase)
Assay type: biochemical
Settings: 100 nM Ras-CVIM substrate, [3H]-FPP, 30 min; read-out: IC50, inhibitory activity against human FPTase

IC50 [µM] | Structure (SMILES)
< 10 | CC[C@H](C)[C@@H](CN1Cc2ccccc2C[C@H]1C(=O)N[C@@H](CCSC)C(=O)O)NC(=O)[C@@H]1CCC(=O)N1 [Example 3, Step B, N-[L-Pyroglutamyl-2(S)-amino-3(S)-methylpentyl]-1,2,3,4-tetrahydro-3(S)-isoquinolinecarbonyl-methionine trifluoroacetate]
< 10 | CC[C@H](C)[C@@H](CN1Cc2ccccc2C[C@H]1C(=O)N[C@@H](CCSC)C(=O)O)NC(=O)Cc1c[nH]cn1 [Examples 1. Step G, N-[(1H-imidazol-4-ylacetyl)-2(S)-amino-3(S)-methylpentyl]-1,2,3,4-tetrahydro-3(S)-isoquinolinecarbonyl-methionine trifluoroacetate]
